The source of these data is patent US11414437B2, “Borate compound, and synthesis method therefor and uses thereof” (CHENGDU ORIGIN BIOTECHNOLOGY LIMITED COMPANY, priority 2017, dated 2022).

In series [1] the test system is MM.1S (human multiple myeloma cell). As to the kind of experiment: In vitro activity test (CCK-8 cell growth inhibition). Conditions: MM1.S, 48 hours incubation, read-out: MM.IS cell GI50 (μM) value. The series is classed as cell-based. How it is done: (§1) Cells RPMI-8226 (human multiple myeloma cell) and MM.1S (human multiple myeloma cell) were cultured in a RPMI 1640 medium containing 10% fetal bovine serum at 37[…] under 5% CO2 to a logarithmic growth phase. The cells were respectively inoculated into a 96-well culture plate in a quantity of 3×10^4/well. After culturing for 24 hours at 37[…] under 5% CO2, a solvent control DMSO (dimethyl sulfoxide) or a tested compound (the tested compound taken 0.3 μM as an initial concentration, was diluted 3 times each time, and was diluted 5 times in total to obtain 6 concentration gradients) dissolved in the DMSO was added into the cells. The tested compound was incubated with the cells for 48 hours at 37[…] under 5% CO2. A CCK-8 reagent was added into each well, and incubated at 37 °C for 2 hours according to a reagent specification, and an optical density value of each well was read at a wavelength of 450 nm using a spectrophotometer.
(§2) An optical density value of the cells when the medicine acted for 0 hour was set as a Tz value, which represented a value of the cells when the medicine was added. The optical density value of the cells when the solvent control DMSO acted for 48 hours was set as a C value; and the optical density value of the cells when the tested compound acted for 48 hours was set as a Ti value. According to a method proposed by the NIH-NCI (National Institutes of Health-National Cancer Institute) of the United States, a response of the cells to a medicine was calculated: when Ti≥Tz, the response was [(Ti−Tz)/(C−Tz)]×100; and when Ti<Tz, the response was [(Ti−Tz)/Tz]×100. According to the calculation above, a GI50 value (a concentration of the tested compound required when a cell growth inhibition rate was 50%) was calculated by the 4 Parameter Logistic Model in the XLfit software.

The subject of series [2] is RPMI-8226 (human multiple myeloma cell). The description is as above. The series is classed as cell-based. The following applies: 48 hours incubation. How it is done:
as §1, §2

Series [3] concerns SD rats. The following applies: for maximum tolerance dose: female rats, single intragastric dose. From the text: The test was a single-dose toxicity test of SD rats by intragastric administration through mouth.
For series [4], the system named is MM.1S human multiple myeloma SCID mouse transplanted tumor. In words: Pharmacodynamic test, SCID mouse transplanted tumor model. The format is in vivo. The following applies: 0.0166 mmol/kg intragastric; for Average tumor relative volume RVT5 / Average tumor relative volume RVT8 / Average tumor relative volume RVT12 / Average tumor relative volume RVT15 / Average tumor relative volume RVT18: twice a week; for Average tumor relative volume RVT5 / Average tumor relative volume RVT8 / Average tumor relative volume RVT12 / Average tumor relative volume RVT15 / Average tumor relative volume RVT18 / Tumor weight (g): X ± SD; for Tumor weight (g): after the 18th day. How it is done: In the experiment, a SCID mouse transplanted tumor model of a human multiple myeloma cell line MM.1S was used. Specific modeling steps were as follows: frozen MM.1S cells were resuscitated and cultured in vitro according to a routine, and the cells were collected in a logarithmic growth phase, and diluted with PBS to form a tumor cell suspension with a concentration of 5×10^7/ml. […] About 1 week to 2 weeks after injection, the mass was palpable in axillary, and in vivo passage was performed when a tumor volume was larger than 500 mm^3. After the mouse was killed by a neck pulling method, a body surface was disinfected, skin was cut open, aseptic operation was performed, a tumor tissue was peeled off from an axillary subcutaneous tissue, a fibrous capsule was removed, and the tumor was taken out. The tumor was washed clean in normal saline, and then cut, and after removing the central necrotic part, the tumor tissue with good growth, reddish color and fish flesh shape was selected, then was cut into 1 mm×1 mm×1 mm small pieces, and placed in normal saline for later use. The cut tumor was placed in a mouth of a No. 18 trocar, iodized cotton was used to disinfect the side of the armpit close to the back of the mouse, and local inoculation was performed. The transplanted tumor used in the test was the 4th generation of in vivo passage. When the tumor volume of most SCID mice of in vivo passage was larger than 100 mm^3, the tumor volume was measured and calculated, and the mice were randomly grouped according to the tumor volume.
The administration mode was intragastric administration through mouth, with an administration volume of 10 ml/kg. The model control group was given the same volume of solvent intragastrically. The mice were all intragastrically administrated through mouth twice a week for a total of 5 times, i.e., the mice were administrated at the 1st, 5th, 8th, 12th and 15th days of the experiment, with a duration of 18 days.
Doses of different tested samples were equimolar, with a specific dose of 0.0166 mmol/kg; and the model control group was only given normal saline. The medicines were 8b and 8l, as well as Ixazomib Citrate (MLN9708) and Ixazomib (MLN2238).
On the 5th, 8th, 12th, 15th and 18th days after administration, a short diameter (a) and a long diameter (b) of the tumor of each mouse were measured with a vernier caliper, and the tumor volume was calculated according to a formula (a^2×b)/2. A relative tumor volume (RTV) was calculated based on the tumor volume measured and calculated, RTV=Vt/V0. V0 was the tumor volume at random grouping (i.e., d0) and Vt was the tumor volume at each measurement (i.e., dn). A relative tumor proliferation rate of an anti-tumor activity evaluation index was calculated according to the following formula: relative tumor proliferation rate T/C (%): […]
(Note: TRTV was a RTV of the treatment group; and CRTV was a RTV of the model control group. An evaluation standard of a curative effect was T/C %≤40%, and the medicine was effective when P<0.05 after statistical treatment).
After weighing and measuring the tumor on the 18th day, all animals were sacrificed, and the tumor was taken and weighed.

[5] abbreviates: dose 1, 0.001108 mmol/kg single intragastric dose, 6 female rats, 14 days observation.
Setting [6] is: dose 1, 0.001108 mmol/kg single intragastric dose, 6 male rats, 14 days observation.
Where [7] appears, read: dose 2, 0.001662 mmol/kg single intragastric dose, 6 female rats, 14 days observation.
Where [8] appears, read: dose 2, 0.001662 mmol/kg single intragastric dose, 6 male rats, 14 days observation.
Where [9] appears, read: dose 3, 0.002216 mmol/kg single intragastric dose, 6 female rats, 14 days observation.
Setting [10] is: dose 3, 0.002216 mmol/kg single intragastric dose, 6 male rats, 14 days observation.
The mark [11] stands for this setting: dose 4, 0.00277 mmol/kg single intragastric dose, 6 female rats, 14 days observation.
Where [12] appears, read: dose 4, 0.00277 mmol/kg single intragastric dose, 6 male rats, 14 days observation.
The mark [13] stands for this setting: female, rat, in vivo, 0.001108 mmol/kg, 14 days.
[14] abbreviates: male, rat, in vivo, 0.001108 mmol/kg, 14 days.
The mark [15] stands for this setting: male, rat, in vivo, 0.002216 mmol/kg, 14 days.

Counter-ions that a name gives are not always drawn. Like-named read-outs stand apart in the source and are kept apart here.

In the case of `CC(C)C[C@H](NC(=O)CNC(=O)c1cc(Br)ccc1Cl)B1OCCNCCO1` [drawing 41], the GI50 came to 0.00713 µM in series [1] and 0.00651 µM in series [2].

With `CC(C)C[C@H](NC(=O)CNC(=O)c1cc(Br)ccc1Cl)B1OCCNCCO1` [compound 8d], the “Female Suvival” value in series [3] (setting [5]) worked out at 6; in series [3] (setting [7]), 4; in series [3] (setting [9]) it was 1; in series [3] (setting [11]) it was 0. The “Male Suvival” value in series [3] (setting [6]), in series [3] (setting [8]), in series [3] (setting [10]) and in series [3] (setting [12]) was 6 throughout. The “Female Death” value in series [3] (setting [7]) is listed as 2; in series [3] (setting [9]), 5; in series [3] (setting [11]) it was 6; in series [3] (setting [13]) it was 0. For the same compound, the “Male Death” value in series [3] (setting [8]), in series [3] (setting [12]), in series [3] (setting [14]) and in series [3] (setting [15]) was 0 in each case.

With `CC(C)C[C@H](NC(=O)CNC(=O)c1cc(Cl)ccc1Cl)B1OC(=O)C(CC(=O)O)(CC(=O)O)O1` [Ixazomib (MLN9708), Ixazomib Citrate], the “Relative tumor proliferation rate T/C(%)” value in series [4] (5th day) is 82.56^★★ %; in series [4] (8th day), 20.94%; in series [4] (12th day), 6.13^★★ %; in series [4] (15th day) it was 4.42^★★ %; in series [4] (18th day), 3.06^★★ %. The “Average tumor relative volume RVT5” value in series [4] (5th day) is listed as 1.431 ± 0.452^★★. Also, the “Average tumor relative volume RVT8” value in series [4] (8th day) is listed as 0.571 ± 0.305. In series [4] (12th day), the “Average tumor relative volume RVT12” value is 0.245 ± 0.123^★★▴▴. Moreover, the “Average tumor relative volume RVT15” value in series [4] (15th day) is recorded as 0.214 ± 0.133^★★▴▴. The “Average tumor relative volume RVT18” value in series [4] (18th day) is given as 0.205 ± 00.151^★★▴▴. For the same compound, the “Tumor weight (g)” value in series [4] is on record as 0.284 ± 0.312^★ g. Moreover, the “Female Death” value in series [3] (setting [5]) is on record as 0; in series [3] (setting [7]) it was 1; in series [3] (setting [11]), 6; in series [3] (rat, in vivo), 3. Also, the “Female Suvival” value in series [3] (setting [5]) is 6; in series [3] (setting [7]) it was 5; in series [3] (setting [11]) it was 0; in series [3] (rat, in vivo), 3. Moreover, the “Male Death” value in series [3] (setting [6]) worked out at 0; in series [3] (setting [8]), 0; in series [3] (setting [12]) it was 0; in series [3] (rat, in vivo), 0. In addition, the “Male Suvival” value turned out to be 6 in series [3] (setting [6]); 6 in series [3] (setting [8]); 6 in series [3] (setting [12]); 6 in series [3] (rat, in vivo). This compound came in with a maximum tolerance dose in series [3] of 0.001108 mmol/kg.

Take `CC(C)C[C@H](NC(=O)CNC(=O)c1cc(Cl)ccc1Cl)B(O)O` [Ixazomib (MLN2238), Ixazomib]: the “Relative tumor proliferation rate T/C(%)” value is listed as 87.8^★★ % in series [4] (5th day); 45.44^★ % in series [4] (8th day); 22.51^★★ % in series [4] (12th day); 10.8^★★ % in series [4] (15th day); 2.43^★★ % in series [4] (18th day). Further, the “Average tumor relative volume RVT5” value in series [4] (5th day) is on record as 1.522 ± 0.273^★★. Moreover, the “Average tumor relative volume RVT8” value in series [4] (8th day) is reported as 1.238 ± 0.841^★▴▴. For the same compound, the “Average tumor relative volume RVT12” value in series [4] (12th day) was 0.898 ± 0.749^★★▴▴. The “Average tumor relative volume RVT15” value in series [4] (15th day) is given as 0.489 ± 0.343^★★▴▴. Moreover, the “Average tumor relative volume RVT18” value in series [4] (18th day) is reported as 0.163 ± 0.132^★★▴▴. Also, in series [4], the “Tumor weight (g)” value was 0.374 ± 0.291^★★ g. Also, the “Female Death” value in series [3] (setting [5]) was 0; in series [3] (setting [7]), 2; in series [3] (setting [11]) it was 6; in series [3] (rat, in vivo), 4. For the same compound, the “Female Suvival” value is 6 in series [3] (setting [5]); 4 in series [3] (setting [7]); 0 in series [3] (setting [11]); 2 in series [3] (rat, in vivo). The “Male Death” value in series [3] (setting [6]) is listed as 0; in series [3] (setting [8]), 0; in series [3] (setting [12]), 0; in series [3] (rat, in vivo) it was 0. For the same compound, the “Male Suvival” value in series [3] (setting [6]) was found to be 6; in series [3] (setting [8]), 6; in series [3] (setting [12]), 6; in series [3] (rat, in vivo), 6. For the same compound, in series [3], the maximum tolerance dose came out at 0.001108 mmol/kg.

Consider `CC(C)C[C@H](NC(=O)CNC(=O)c1cc(Cl)ccc1Cl)B1OC(=O)[C@@H](c2ccccc2)O1` [compound 8l, 2-chloro-5-chloro-N-[2-({(1R)-3-methyl-1-[(5R)-4-oxo-5-phenyl-1,3,2-dioxaborolan-2-yl]butyl}amino)-2-oxoethyl]benzamide], for which the “Relative tumor proliferation rate T/C(%)” value in series [4] (5th day) is given as 103.30^★★ %; in series [4] (8th day), 63.82^★★ %; in series [4] (12th day) it was 36.37^★★ %; in series [4] (15th day) it was 23.24^★★ %; in series [4] (18th day), 8.38^★ %. The “Average tumor relative volume RVT5” value in series [4] (5th day) is on record as 1.791 ± 0.540^★★. The “Average tumor relative volume RVT8” value in series [4] (8th day) was 1.739 ± 0.783^★★▴. Moreover, the “Average tumor relative volume RVT12” value in series [4] (12th day) is recorded as 1.451 ± 0.676^★★▴▴. Moreover, in series [4] (15th day), the “Average tumor relative volume RVT15” value is on record as 1.127 ± 0.667^★★▴▴. For the same compound, the “Average tumor relative volume RVT18” value in series [4] (18th day) is reported as 0.561 ± 0.468^★★▴▴. Besides, the “Tumor weight (g)” value in series [4] is given as 0.560 ± 0.566^★ g. The “Female Suvival” value worked out at 6 in series [3] (setting [5]), 5 in series [3] (setting [7]), 4 in series [3] (setting [9]) and 0 in series [3] (setting [11]). The “Male Suvival” value in series [3] (setting [6]), in series [3] (setting [8]), in series [3] (setting [10]) and in series [3] (setting [12]) was 6 throughout. Moreover, the “Female Death” value in series [3] (setting [7]) is 1; in series [3] (setting [9]), 2; in series [3] (setting [11]), 6; in series [3] (setting [13]), 0. The “Male Death” value in series [3] (setting [8]), in series [3] (setting [12]), in series [3] (setting [14]) and in series [3] (setting [15]) was 0 each time. This compound also registered a maximum tolerance dose in series [3] of 0.001108 mmol/kg.

What is called GI50 is the concentration that inhibits growth by half.
